Source: patent US8927717B1, “Thiochromeno[2,3-c]quinolin-12-one derivatives, preparation method and application thereof” (National Defense Medical Center, priority 2014, dated 2015)

Tests used:
SF-268 = assay type: cell-based
TOP I (Topoisomerase I) [1] = target: T1, TOP I (Topoisomerase I) (Homo sapiens, UniProt P11387); experiment: TOP I mediated supercoiled DNA relaxation assay; assay type: biochemical; settings: five different concentrations; TopoGEN TG2005H, TG-2000H-1
T1 construct: purchased TopoGEN TG2005H
T1 sequence (P11387 1-765): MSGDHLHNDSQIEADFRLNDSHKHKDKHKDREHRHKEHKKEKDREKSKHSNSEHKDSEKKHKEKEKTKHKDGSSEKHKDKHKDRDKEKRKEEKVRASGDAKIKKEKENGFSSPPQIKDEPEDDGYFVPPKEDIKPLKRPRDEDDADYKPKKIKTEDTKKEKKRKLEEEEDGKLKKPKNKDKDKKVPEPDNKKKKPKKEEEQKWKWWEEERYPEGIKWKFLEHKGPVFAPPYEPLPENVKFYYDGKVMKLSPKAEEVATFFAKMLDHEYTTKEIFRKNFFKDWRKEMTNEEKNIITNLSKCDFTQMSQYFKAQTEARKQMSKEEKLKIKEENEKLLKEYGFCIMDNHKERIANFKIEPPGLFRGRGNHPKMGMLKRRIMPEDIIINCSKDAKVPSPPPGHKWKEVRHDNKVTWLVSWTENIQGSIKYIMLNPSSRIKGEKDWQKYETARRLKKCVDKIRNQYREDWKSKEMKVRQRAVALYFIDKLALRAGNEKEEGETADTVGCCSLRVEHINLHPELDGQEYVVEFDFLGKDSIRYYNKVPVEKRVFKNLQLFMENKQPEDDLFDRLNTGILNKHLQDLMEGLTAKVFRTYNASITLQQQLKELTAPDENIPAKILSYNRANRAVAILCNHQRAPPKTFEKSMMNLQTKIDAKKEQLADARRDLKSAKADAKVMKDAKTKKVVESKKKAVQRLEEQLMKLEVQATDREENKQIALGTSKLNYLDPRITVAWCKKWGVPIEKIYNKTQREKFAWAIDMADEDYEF

MALME-3M = assay type: cell-based
A549/ATCC = assay type: cell-based
SF-539 = assay type: cell-based
HOP-92 = assay type: cell-based; settings: HOP-92, five dose
ACHN = assay type: cell-based
NCI-H23 = assay type: cell-based
UACC-257 = assay type: cell-based
786-0 = assay type: cell-based
UACC-62 = assay type: cell-based
SK-MEL-2 = assay type: cell-based; settings: SK-Mel-2, five dose
OVCAR-3 = assay type: cell-based; settings: Ovarian cancer; 10^−5 molar; 48 hours; SRB
MOLT-4 = assay type: cell-based
MDA-MB-486 = assay type: cell-based
TOP I (Topoisomerase I) [2] = target: T1, TOP I (Topoisomerase I); experiment: TOP I mediated supercoiled DNA relaxation assay; assay type: biochemical; settings: primary assay at 25 and/or 50 μM
Procedure: According to the cell cytotoxicity, compounds 5, 7, 8, 16, 19, N2, N7, N8, N9, N14-N19, and N25 were also selected for primary TOP I and II activities assays at 25 and/or 50 μM (FIG. 2-4).

OVCAR-4 = assay type: cell-based
MDA-MB-435 = assay type: cell-based
CAKI-1 = assay type: cell-based
[3] = target: T2, TOP II (Topoisomerase II) (Homo sapiens, UniProt P11388); experiment: TOP II-catalyzed relaxation of plasmid DNA assay; assay type: biochemical
T2 construct: purchased TopoGEN TG-2000H-1
Procedure: We also performed TOP II-catalyzed relaxation of plasmid DNA assays (FIG. 5-7) to evaluate if compounds could inhibit TOP II. […] The IC50 value of compounds 7, N7, N8, N14, N15, N18, and N19 were about 10, 10, 1, 10, 5, 1, and 1 μM, respectively (detect by TopoGEN TG2005H, TG-2000H-1).

HCC-2998 = assay type: cell-based
UO-31 = assay type: cell-based
IGROV1 = assay type: cell-based
[4] = CNS cancer, 10^−5 molar, 48 hours, SRB
[5] = Homo sapiens, MALME-3M, five dose
[6] = Melanoma, 10^−5 molar, 48 hours, SRB
[7] = Homo sapiens, A549/ATCC, five dose
[8] = Non-small cell lung cancer, 10^−5 molar, 48 hours, SRB
[9] = Homo sapiens, SF-539, five dose
[10] = Renal cancer, 10^−5 molar, 48 hours, SRB
[11] = Homo sapiens, NCI-H23, five dose
[12] = Ovarian cancer, 10^−5 molar, 48 hours, SRB
[13] = Homo sapiens, HCC-2998, five dose

T2 sequence (P11388 whole entry): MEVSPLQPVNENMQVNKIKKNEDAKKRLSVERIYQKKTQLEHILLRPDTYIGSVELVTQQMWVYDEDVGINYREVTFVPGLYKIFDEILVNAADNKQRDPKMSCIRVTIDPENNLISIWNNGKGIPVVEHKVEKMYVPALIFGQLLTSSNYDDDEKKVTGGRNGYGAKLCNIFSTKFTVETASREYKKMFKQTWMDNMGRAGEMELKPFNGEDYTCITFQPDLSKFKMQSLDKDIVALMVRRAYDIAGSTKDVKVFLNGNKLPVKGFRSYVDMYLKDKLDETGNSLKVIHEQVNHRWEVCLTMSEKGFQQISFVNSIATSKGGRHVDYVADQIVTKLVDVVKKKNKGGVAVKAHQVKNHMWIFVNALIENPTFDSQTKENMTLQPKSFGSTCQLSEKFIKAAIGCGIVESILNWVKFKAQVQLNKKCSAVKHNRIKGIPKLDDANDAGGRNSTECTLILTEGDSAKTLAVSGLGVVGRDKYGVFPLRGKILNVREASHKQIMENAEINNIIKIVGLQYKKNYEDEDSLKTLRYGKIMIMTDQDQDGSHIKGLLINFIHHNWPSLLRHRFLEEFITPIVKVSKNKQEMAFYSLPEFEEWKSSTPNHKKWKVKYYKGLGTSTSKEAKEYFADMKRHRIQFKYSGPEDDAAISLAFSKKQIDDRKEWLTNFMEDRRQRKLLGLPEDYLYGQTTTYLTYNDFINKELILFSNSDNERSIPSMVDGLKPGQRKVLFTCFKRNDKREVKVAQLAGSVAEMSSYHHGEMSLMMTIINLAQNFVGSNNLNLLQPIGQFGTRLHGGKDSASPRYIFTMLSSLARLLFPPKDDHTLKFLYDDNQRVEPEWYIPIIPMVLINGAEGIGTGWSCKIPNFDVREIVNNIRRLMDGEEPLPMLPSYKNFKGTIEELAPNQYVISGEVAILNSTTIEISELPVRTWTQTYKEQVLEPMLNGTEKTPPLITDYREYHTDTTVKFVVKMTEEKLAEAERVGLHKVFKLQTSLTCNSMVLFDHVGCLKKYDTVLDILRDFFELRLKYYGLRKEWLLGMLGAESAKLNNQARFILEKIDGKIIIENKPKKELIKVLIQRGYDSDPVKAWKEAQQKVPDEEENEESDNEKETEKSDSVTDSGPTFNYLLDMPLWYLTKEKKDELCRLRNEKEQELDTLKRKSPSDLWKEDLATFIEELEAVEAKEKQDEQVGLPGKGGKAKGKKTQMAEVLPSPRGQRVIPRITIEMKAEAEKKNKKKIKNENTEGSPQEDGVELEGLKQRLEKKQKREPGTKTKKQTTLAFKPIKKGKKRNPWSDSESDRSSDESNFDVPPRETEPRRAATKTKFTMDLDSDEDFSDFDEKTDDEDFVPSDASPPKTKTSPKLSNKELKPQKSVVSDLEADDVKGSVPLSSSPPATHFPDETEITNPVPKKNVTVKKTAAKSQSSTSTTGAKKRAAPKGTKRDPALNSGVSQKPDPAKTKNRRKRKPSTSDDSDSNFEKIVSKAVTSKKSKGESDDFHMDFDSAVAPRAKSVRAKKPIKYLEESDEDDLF

Structure (SMILES): NCCNc1nc2ccccc2c2c(=O)c3cc(Cl)ccc3sc12 [Compound N14, 6-((2-Aminoethyl)amino)-10-chloro-12H-thiochromeno[2,3-c]quinolin-12-one]
- Growth percent SF-268 (SF-268; [4]): −67.65%
- GI50 (SF-268; Homo sapiens, SF-268, five dose): 1.59 µM
- CC50 (SF-268; Homo sapiens, SF-268, five dose, read-out: LC50 (the source's name)): 6.55 µM
- TGI (SF-268; SF-268, five dose): 3.23 µM
- IC50 (TOP I (Topoisomerase I) [1]): ~1 µM
- GI50 (MALME-3M; [5]): 1.98 µM
- LC50 (MALME-3M; [5]): 7.93 µM
- TGI (MALME-3M; MALME-3M, five dose): 3.96 µM
- Growth percent MALME-3M (MALME-3M; [6]): −48.42%
- TGI (A549/ATCC; A549/ATCC, five dose): 3.50 µM
- GI50 (A549/ATCC; [7]): 1.83 µM
- LC50 (A549/ATCC; [7]): 6.68 µM
- Growth percent A549/ATCC (A549/ATCC; [8]): −88.76%
- Growth percent SF-539 (SF-539; [4]): 2.13%
- GI50 (SF-539; [9]): 1.57 µM
- LC50 (SF-539; [9]): 5.52 µM
- TGI (SF-539; SF-539, five dose): 2.95 µM
- TGI (HOP-92): 3.05 µM
- GI50 (HOP-92; Homo sapiens): 1.03 µM
- LC50 (HOP-92; Homo sapiens): 9.04 µM
- TGI (ACHN; ACHN, five dose): 2.76 µM
- GI50 (ACHN; Homo sapiens, ACHN, five dose): 1.44 µM
- CC50 (ACHN; Homo sapiens, ACHN, five dose, read-out: LC50 (the source's name)): 5.29 µM
- Growth percent ACHN (ACHN; [10]): −92.31%
- GI50 (NCI-H23; [11]): 1.72 µM
- LC50 (lethal concentration 50%) (NCI-H23; [11]): 6.63 µM
- TGI (NCI-H23; NCI-H23, five dose): 3.37 µM
- Growth percent NCI-H23 (NCI-H23; [8]): −5.25%
- GI50 (UACC-257; Homo sapiens, UACC-257, five dose): 1.9 µM
- CC50 (UACC-257; Homo sapiens, UACC-257, five dose, read-out: LC50 (the source's name)): 6.7 µM
- Growth percent UACC-257 (UACC-257; [6]): −67.35%
- TGI (UACC-257; UACC-257, five dose): 3.56 µM
- TGI (786-0; 786-0, five dose): 3.20 µM
- GI50 (786-0; Homo sapiens, 786-0, five dose): 1.76 µM
- CC50 (786-0; Homo sapiens, 786-0, five dose, read-out: LC50 (the source's name)): 5.81 µM
- Growth percent 786-0 (786-0; [10]): −57.40%
- GI50 (UACC-62; Homo sapiens, UACC-62, five dose): 1.67 µM
- CC50 (UACC-62; Homo sapiens, UACC-62, five dose, read-out: LC50 (the source's name)): 6.52 µM
- Growth percent UACC-62 (UACC-62; [6]): −96.67%
- TGI (UACC-62; UACC-62, five dose): 3.30 µM
- GI50 (SK-MEL-2; Homo sapiens): 1.98 µM
- LC50 (SK-MEL-2; Homo sapiens): 7.87 µM
- TGI (SK-MEL-2): 3.95 µM
- Growth percent OVCAR-3 (OVCAR-3): −84.15%
- GI50 (MOLT-4; Homo sapiens, MOLT-4, five dose): 2.02 µM
- CC50 (MOLT-4; Homo sapiens, MOLT-4, five dose, read-out: LC50 (the source's name)): 7.77 µM
- Growth percent MOLT-4 (MOLT-4; Leukemia, 10^−5 molar, 48 hours, SRB): −58.82%
- TGI (MOLT-4; MOLT-4, five dose): 3.96 µM
- GI50 (MDA-MB-486; 60 cell, MDA-MB-486, five dose): 1.27 µM
- CC50 (MDA-MB-486; 60 cell, MDA-MB-486, five dose, read-out: LC50 (the source's name)): 6.15 µM
- Growth percent MDA-MB-486 (MDA-MB-486; Breast cancer, 10^−5 molar, 48 hours, SRB): −62.13%
- TGI (MDA-MB-486; MDA-MB-486, five dose): 2.80 µM
- inhibitory effect in TOP I activity assay compared with CPT (TOP I (Topoisomerase I) [2]): more potent inhibitory effects than CPT
- GI50 (OVCAR-4; Homo sapiens, OVCAR-4, five dose): 1.52 µM
- CC50 (OVCAR-4; Homo sapiens, OVCAR-4, five dose, read-out: LC50 (the source's name)): 6.54 µM
- TGI (OVCAR-4; OVCAR-4, five dose): 3.15 µM
- Growth percent OVCAR-4 (OVCAR-4; [12]): −20.15%
- GI50 (MDA-MB-435; Homo sapiens, MDA-MB-435, five dose): 1.82 µM
- TGI (MDA-MB-435; MDA-MB-435, five dose): 3.59 µM
- Growth percent MDA-MB-435 (MDA-MB-435; [6]): −85.39%
- TGI (CAKI-1; CAKI-1, five dose): 3.27 µM
- GI50 (CAKI-1; Homo sapiens, CAKI-1, five dose): 1.56 µM
- Growth percent CAKI-1 (CAKI-1; [10]): −75.30%
- IC50 ([3]; five different concentrations, TopoGEN TG2005H, TG-2000H-1, read-out: IC50 value, TOP II mediated supercoiled DNA relaxation): ~10 µM
- inhibitory effect in TOP II relaxation assay compared with VP-16 ([3]; primary assay at 25 and/or 50 μM): more potent inhibitory effects than the positive agent VP-16
- Growth percent HCC-2998 (HCC-2998; Colon cancer, 10^−5 molar, 48 hours, SRB): −90.43%
- TGI (HCC-2998; HCC-2998, five dose): 4.06 µM
- GI50 (HCC-2998; [13]): 2.03 µM
- LC50 (HCC-2998; [13]): 8.14 µM
- GI50 (UO-31; Homo sapiens, UO-31, five dose): 1.29 µM
- CC50 (UO-31; Homo sapiens, UO-31, five dose, read-out: LC50 (the source's name)): 5.96 µM
- Growth percent UO-31 (UO-31; [10]): −92.77%
- TGI (UO-31; UO-31, five dose): 2.78 µM
- GI50 (IGROV1; Homo sapiens, IGROV-1, IGROV1, five dose): 1.61 µM
- TGI (IGROV1; IGROV1, five dose): 3.45 µM
- Growth percent IGROV1 (IGROV1; [12]): −77.31%
